Data: paper PMC8815882, “Screening the pandemic response box identified benzimidazole carbamates, Olorofim and ravuconazole as promising drug candidates for the treatment of eumycetoma” (PLoS Neglected Tropical Diseases, 2022)
Like-named read-outs stand apart in the source and are kept apart here.

Test system: M. mycetomatis genome strain MM55
Assay: CLSI M38-A2 based in vitro susceptibility screening (XTT or resazurin), growth at fixed concentration
Assay type: cell-based, Madurella mycetomatis
Details: Madurella mycetomatis; for Percent fungal survival at 100 µM: replicate 2, read-out: Percentage survival at 100um, 100 uM A (second replicate column)
[1] = 25 uM, mean of three replicates, read-out: Percentage survival at 25um, 25 uM mean
[2] = 25 uM, replicate A, read-out: Percentage survival at 25um, 25 um A
[3] = 25 uM, replicate B, read-out: Percentage survival at 25um, 25 uM B
[4] = 25 uM, replicate C, read-out: Percentage survival at 25um, 25 uM C
[5] = first replicate column, read-out: Percentage survival at 100um, 100 uM A
[6] = mean of three replicates, read-out: Percentage survival at 100um, 100 uM mean
[7] = second replicate column, read-out: Percentage survival at 100um, 100 uM A
[8] = third replicate column, read-out: Percentage survival at 100um, 100 uM A
[9] = 25 uM, mean of replicates, MM55, read-out: Percentage survival at 25um, 25 uM mean
[10] = 25 uM, replicate A, MM55, read-out: Percentage survival at 25um, 25 um A
[11] = 25 uM, replicate B, MM55, read-out: Percentage survival at 25um, 25 uM B
[12] = 25 uM, replicate C, MM55, read-out: Percentage survival at 25um, 25 uM C
[13] = mean of replicates, MM55, read-out: Percentage survival at 100um, 100 uM mean
[14] = replicate 1, MM55, read-out: Percentage survival at 100um, 100 uM A
[15] = replicate 2, MM55, read-out: Percentage survival at 100um, 100 uM A
[16] = replicate 3, MM55, read-out: Percentage survival at 100um, 100 uM A
[17] = replicate 1, read-out: Percentage survival at 100um, 100 uM A (first replicate column)
[18] = replicate 3, read-out: Percentage survival at 100um, 100 uM A (third replicate column)

Row | SMILES | activity at 25 µM [1] | activity at 25 µM [2] | activity at 25 µM [3] | activity at 25 µM [4] | activity at 100 µM [5] | activity at 100 µM [6] | activity at 100 µM [7] | activity at 100 µM [8] | activity at 25 µM [9] | activity at 25 µM [10] | activity at 25 µM [11] | activity at 25 µM [12] | activity at 100 µM [13] | activity at 100 µM [14] | activity at 100 µM [15] | activity at 100 µM [16] | further results
1 | COc1ccc(NS(=O)(=O)c2ccc(Cl)s2)cn1 [MMV1580499] | 85% | 77.6% | 91.2% | 86.3% | 64.6% | 61.8% | 69.9% | 50.9% | – | – | – | – | – | – | – | – | –
2 | Cn1c2ccccc2c(=O)c2c(O)cccc21 [MMV1580500] | – | – | – | – | – | – | – | – | 65% | 63.1% | 67.8% | 64.2% | 58.6% | 66.8% | 57.2% | 51.8% | –
3 | CC1(C)CC(NC(=O)C(=O)Nc2ccc(Cl)cc2)CC(C)(C)N1 [MMV1580501] | – | – | – | – | – | – | – | – | 79.5% | 75.9% | 89.4% | 73.3% | 74.7% | 76.9% | 78.1% | 69% | –
4 | c1cc(CN2CCCNCCNCCCNCC2)ccc1CN1CCCNCCNCCCNCC1 [MMV1580502] | – | – | – | – | – | – | – | – | 91.1% | 89% | 97.4% | 86.9% | 83.6% | 86.9% | 83.7% | 80.2% | –
5 | CC(=O)N1c2ccccc2NC2=C(C(=O)CC(C)(C)C2)C1c1ccc(OCc2ccccc2)cc1 (centres unmarked) [MMV1580503] | 100% | 99.4% | 107% | 94.6% | 99.3% | 97.8% | 113% | 80.9% | – | – | – | – | – | – | – | – | –
6 | Oc1ccc(NCc2ccccc2OCc2ccccc2)cc1 [MMV1580504] | 81.4% | 86.2% | 84.4% | 73.7% | – | 8.06% | – | – | – | – | – | – | – | – | – | – | activity at 100 µM [17]: 2.17%; Percent fungal survival at 100 µM: 4.7%; activity at 100 µM [18]: 17.3%
7 | O=C(Nc1ccc(N2CCN(C(=O)c3ccccc3)CC2)cc1)c1ccc2c(c1)OCO2 [MMV1580505] | – | – | – | – | – | – | – | – | 104% | 103% | 109% | 101% | 96.7% | 102% | 96.8% | 91.4% | –
8 | C[C@H](NC(=O)C(=O)Nc1ccccc1C(C)(C)C)C(=O)N[C@@H](CC(=O)O)C(=O)COc1c(F)c(F)cc(F)c1F [MMV1580794] | 43.5% | 71.1% | -10.5% | 70% | – | 70.9% | – | – | – | – | – | – | – | – | – | – | activity at 100 µM [17]: 64.2%; Percent fungal survival at 100 µM: 60.7%; activity at 100 µM [18]: 87.8%
9 | CC[C@@]1(O)C(=O)OCc2c1cc1n(c2=O)Cc2cc3c([N+](=O)[O-])cccc3nc2-1 [MMV1580796] | – | – | – | – | – | – | – | – | – | 95.3% | – | – | 86.8% | 97.1% | 84.7% | 78.6% | activity at 25 µM (read-out: Percentage survival at 25um, 25 uM B): 102%; activity at 25 µM (read-out: Percentage survival at 25um, 25 uM C): 81.7%; activity at 25 µM (read-out: Percentage survival at 25um, 25 uM mean): 93.1%
10 | OCCC#Cc1nc(-c2ccc(F)cc2)c(-c2ccncc2)n1CCCc1ccccc1 [MMV1580797] | 67.7% | 62% | 74.7% | 66.4% | 53.2% | 57.6% | 58.3% | 61.4% | – | – | – | – | – | – | – | – | –
